In patent publication US20240408064A1, “RAS INHIBITORS, COMPOSITIONS AND METHODS OF USE THEREOF” (GENETOLEAD INC., priority 2021, published 2024):

Legend:
[1] = target: T1, HRas^G12V (Homo sapiens (Human), UniProt P01112, G12V); assay: 19F DLB (ligand-observed 19F NMR) score; assay type: binding; set-up: scale not given here
In short: (§1)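 In the T2-CPMG experiment, echo spacing was 1 ms and total delays ranged over eight values from 1 to 800 ms. Both scores come from 600 MHz NMR of 50 μM HRas G12V mixed with fragment pools at 240 μM each, in phosphate buffer pH 7.4 with NaCl, MgCl2 and TCEP-d16. Ligand-observed 19F spectra were recorded with 1H decoupling, 64 scans and a 5 s relaxation delay.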

[2] = target: T1, HRas^G12V; assay: 19F T2-CPMG NMR score; assay type: binding
In short: as §1

[3] = target: T1, HRas^G12V; assay: Overall binding/activity in the various assays (NMR consensus binding)
Description: Since the fragment library was curated using phosphate buffer, 25 mM sodium phosphate pH 7.4, 150 mM NaCl, 5 mM MgCl2, 1 mM TCEP-d16, 10% D2O Fresh TCEP was used for experiments. Screening was performed using ^1H-decoupled 1D ^19F experiment Bruker experiment (zgfhigqn.2) with 64 scans and a relaxation delay of 5 seconds. 50 μM HRas^G12V and 240 μM of each fragment in pools (mixtures) were used.
Hit confirmation was performed using the same ^19F experiment as the screen. Ligand-observed 1D ^1H, protein-observed 1D ^1H, ^1H T2-CPMG as well as Saturation Transfer Difference (STD) experiments were also run on the same samples. Ligand-observed 1D ^1H was run using the standard Bruker sequence with excitation sculpting (zgesgp) with a relaxation delay of 10 seconds and 16 scans per spectrum. Protein-observed 1D ^1H was performed using the same sequence with a relaxation delay of 1 second and 256 scans in order to increase the signal-to-noise of the protein resonances, while keeping the experimental time relatively short. The ^1H T2-CPMG experiment employed a modified version of the Bruker 1D ^1H zgesgp experiment with the addition of a CPMG pulse train after the first 90° excitation pulse. Total duration for each spin echo was fixed at 1 ms (τ=500 μs), while the number of echoes in the pulse train was varied according to the total time (T). The number of scans for each spectrum was 4 and eight delay times were run on each sample, ranging from 1 ms to 800 ms.
STD experiments consisted of two independent spectra with offsets of 0 ppm (on resonance) and −20 ppm (off resonance). […] 160 scans were acquired for each spectrum.
The results obtained with the compounds in the various assays described above are depicted in Table 21.
Because of its power to probe the intrinsically weak interactions (Kd) between targets and low-molecular weight fragments, NMR fragment-based lead discovery (FBLD) is a very useful biophysical method in early stage drug discovery, especially for challenging target proteins; including those with shallow binding pockets. Since FBLD screens are performed using low-molecular weight compounds (fragments) with lower structural complexity, the same chemical space can be covered using a smaller number of drug-like fragments versus use of large libraries of higher-molecular weight lead-like compounds as in high throughput screening (HTS) campaigns. Therefore, FBLD has a much higher hit rate than HTS using only several hundred to several thousand compounds in comparison with approximately 1 million compounds for HTS. Also, the small size of the compounds screened in FBLD means a better chance to fully match the interactions with small or transient pockets within the target protein, where these less tractable pockets cannot be accessed with standard classical HTS methods. […] We expect this methodology to be more advantageous than classical HTS methods for expediting the time from hit to lead (H2L) and allows for rapid access to high quality leads with lower attrition rates in subsequent lead optimization (LO) campaigns toward pre-clinical candidate selection. FBLD screening by NMR involves a “consensus binding” approach where several distinct NMR experiments (DLB, STD, CPMG) are applied along with a free-state aggregation detection method (T2-CPMG) to rank the compounds for their affinity to the receptor (HRAS in this case) whilst simultaneously monitoring the solution behavior and critical quality attributes of each compound. The latter helps to eliminate artifact binders which are highly problematic. We performed a fluorine screen involving 461 compounds that were derived from a highly curated fragment library. Moreover, two-dimensional ^15N HSQC NMR was also used to validate ligand-binding sites on the target protein. In addition, we employed protein-detected biophysical measurements were employed to determine fragment binding affinities to the target protein (Kd) by HSQC NMR. […]

T1 sequence (P01112 1-166 G12V): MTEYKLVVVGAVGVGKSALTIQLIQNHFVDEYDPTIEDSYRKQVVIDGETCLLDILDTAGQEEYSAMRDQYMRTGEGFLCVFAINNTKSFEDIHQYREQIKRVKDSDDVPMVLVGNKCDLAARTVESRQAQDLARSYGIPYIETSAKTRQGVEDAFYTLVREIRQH

| SMILES | 19F DLB Score [1] | 19F T2-CPMG Score [2] | Binding to HRas^G12V (in words) [3] |
| --- | --- | --- | --- |
| C[C@@H](NC(=O)Cc1c[nH]c2cc(F)ccc12)C(=O)O [Compound 10083] | 1.14 | 2.8 | low or no binding |
| C[C@H](NC(=O)Cc1c[nH]c2cc(F)ccc12)C(=O)O [Compound 10084] | 1.09 | 1.7 | low or no binding |
| CC(=O)N1CC[C@@H](NC(=O)Cc2c[nH]c3cc(F)ccc23)C1 [Compound 10092, (R)—N-(1-acetylpyrrolidin-3-yl)-2-(6-fluoro-1H-indol-3-yl) acetamide] | 1.46 | 7.82 | low or no binding |
| CCOC(=O)C(CC(C)C)NC(=O)Cc1c[nH]c2cc(F)ccc12 (stereo not drawn) [Compound 10093] | 1.35 | 4.89 | low or no binding |
| CCOC(=O)C(Cc1ccccc1)NC(=O)Cc1c[nH]c2cc(F)ccc12 (stereo not drawn) [Compound 10096] | 1.14 | 2.11 | low or no binding |
| CCOC(=O)C(Cc1ccc(O)cc1)NC(=O)Cc1c[nH]c2cc(F)ccc12 (stereo not drawn) [Compound 10098] | 1.38 | 5.94 | low or no binding |
| CCOC(=O)C(CC(N)=O)NC(=O)Cc1c[nH]c2cc(F)ccc12 (stereo not drawn) [Compound 10101] | 1.12 | 1.74 | low or no binding |
| O=C(O)C1CCN1C(=O)Cc1c[nH]c2cc(F)ccc12 (stereo not drawn) [Compound 10102, 1-(2-(6-fluoro-1H-indol-3-yl)acetyl) azetidine-2-carboxylic acid] | 1.06 | 2.65 | low or no binding |
| CCOC(=O)C(Cc1c[nH]cn1)NC(=O)Cc1c[nH]c2cc(F)ccc12 (stereo not drawn) [Compound 10104] | 1.14 | 2.49 | low or no binding |
| CCOC(=O)C(CO)NC(=O)Cc1c[nH]c2cc(F)ccc12 (stereo not drawn) [Compound 10105] | 1.2 | 2.44 | low or no binding |
| O=C(O)CN1CCC(NC(=O)Cc2c[nH]c3cc(F)ccc23)CC1 [Compound 10108, 2-(4-(2-(6-fluoro-1H-indol-3-yl)acetamido)piperidin-1-yl)acetic acid] | 1.34 | 5.72 | low or no binding |
| O=C(O)C1CN(C(=O)Cc2c[nH]c3cc(F)ccc23)C1 [Compound 10113, 1-(2-(6-fluoro-1H-indol-3-yl)acetyl) azetidine-3-carboxylic acid] | 1.29 | 2.55 | low or no binding |
| CN1CCC(NC(=O)Cc2c[nH]c3cc(F)ccc23)C(C(=O)O)C1 (stereo not drawn) [Compound 10118, 4-(2-(6-fluoro-1H-indol-3-yl)acetamido)-1-methylpiperidine-3-carboxylic acid] | 1.15 | 2.67 | low or no binding |
| CN1CCC(NC(=O)Cc2c[nH]c3cc(F)ccc23)C(C(=O)O)C1 (stereo not drawn) [Compound 10119, 4-(2-(6-fluoro-1H-indol-3-yl)acetamido)-1-methylpiperidine-3-carboxylic acid] | 0.87 | −0.46 | low or no binding |
| CCOC(=O)[C@H]1COCCN1C(=O)Cc1c[nH]c2cc(F)ccc12 [Compound 10121] | 1.26 | 5.23 | low or no binding |
| O=C(O)[C@@H]1CCCCN1C(=O)Cc1c[nH]c2cc(F)ccc12 [Compound 10123] | 1.5 | 2.37 | low or no binding |
| O=C(O)CC1CCN(C(=O)Cc2c[nH]c3cc(F)ccc23)CC1 [Compound 10127] | 1.3 | 4.35 | low or no binding |
| O=C(O)[C@H]1CCCN(C(=O)Cc2c[nH]c3cc(F)ccc23)C1 [Compound 10133, (S)-1-(2-(6-fluoro-1H-indol-3-yl)acetyl)piperidine-3-carboxylic acid] | 1.63 | 2.85 | low or no binding |
| O=C(Cc1c[nH]c2cc(F)ccc12)N1CCOC(c2ccccc2)C1 (stereo not drawn) [Compound 10136] | 1.55 | 6.73 | low or no binding |
| CCOC(=O)[C@@H]1COCCN1C(=O)Cc1c[nH]c2cc(F)ccc12 [Compound 10140, ethyl (S)-4-(2-(6-fluoro-1H-indol-3-yl)acetyl) morpholine-3-carboxylate] | 1.49 | 5.98 | low or no binding |
| COC(=O)C1CN(C(C)C)CCC1NC(=O)Cc1c[nH]c2cc(F)ccc12 (stereo not drawn) [Compound 10141, methyl 4-(2-(6-fluoro-1H-indol-3-yl)acetamido)-1-isopropylpiperidine-3-carboxylate] | 1.21 | 3.15 | low or no binding |
| COC(=O)C1CN(C)CCC1NC(=O)Cc1c[nH]c2cc(F)ccc12 (stereo not drawn) [Compound 10142, Methyl 4-(2-(6-fluoro-1H-indol-3-yl)acetamido)-1-methylpiperidine-3-carboxylate] | 1.11 | 2.43 | low or no binding |
| CC1CN(C(=O)Cc2cc3ccc(F)cc3[nH]2)C1 [Compound 10143, 2-(6-fluoro-1H-indol-2-yl)-1-(3-methylazetidin-1-yl)ethan-1-one] | 0.89 | 0.9 | low or no binding |
| O=C(O)[C@@H]1CCCN(C(=O)Cc2c[nH]c3cc(F)ccc23)C1 [Compound 10149] | 1.56 | 2.26 | low or no binding |
| O=C(O)[C@@H]1COCCN1C(=O)Cc1c[nH]c2cc(F)ccc12 [Compound 10150, (S)-4-(2-(6-fluoro-1H-indol-3-yl)acetyl)morpholine-3-carboxylic acid] | 1.24 | 2.07 | low or no binding |
| O=C(O)[C@@H]1CN(C(=O)Cc2c[nH]c3cc(F)ccc23)CCO1 [Compound 10151] | 1.29 | 3.24 | low or no binding |
| O=C(O)[C@H]1COCCN1C(=O)Cc1c[nH]c2cc(F)ccc12 [Compound 10152] | 1.03 | 3.54 | low or no binding |
| O=C(O)[C@H]1CN(C(=O)Cc2c[nH]c3cc(F)ccc23)CCO1 [Compound 10153] | 1.39 | 3.22 | low or no binding |
| COC(=O)[C@H]1CN(C(=O)Cc2c[nH]c3cc(F)ccc23)CCN1C [Compound 10156, Methyl (R)-4-(2-(6-fluoro-1H-indol-3-yl)acetyl)-1-methylpiperazine-2-carboxylate] | 1.42 | 3.43 | low or no binding |
